{"source": "patent US12083096B2", "about": "“Composition containing artesunate” (priority 2016, dated 2024)", "key": {"[1]": {"assay": "time to dissolve artesunate powder in aqueous base solution to a clear solution", "assay_type": "physicochemical", "details": "10 mg of artesunate with 5% sodium bicarbonate solution", "protocol": "The formulation was prepared prior to use by: providing artesunate; providing a solution comprising an organic base; and adding the solution to artesunate to provide the formulation. For example, the injectable formulation of the present disclosure was prepared by mixing artesunate with an aqueous solution containing a base described herein. Without wishing to be bound by theory, artesunate becomes negatively charged and dissolved. The formulation is freshly prepared immediately before use to minimize instability. In some embodiments, the injectable formulation is prepared by adding a solution of the disclosed bases to artesunate powder. The solution is about 5% glucose, normal saline, or about 5% glucose saline solution. Then the mixture is mixed gently to provide a clear injectable solution.\nThe formulation of the present disclosure is very convenient to prepare."}, "[2]": {"details": "cited from earlier work"}, "[3]": {"details": "in vivo; cited from earlier work"}, "[4]": {"details": "cited from earlier work", "remark": "listed apart in the source"}}}
{"smiles": "C[C@H]1[C@H](OC(=O)CCC(=O)O)O[C@@H]2O[C@@]3(C)CC[C@H]4[C@H](C)CC[C@@H]1[C@@]24OO3", "note": "[artesunate]", "values": [{"measurement": "time needed to dissolve", "setting": "[1]", "value": "five to seven"}, {"measurement": "stability under basic and acidic conditions", "setting": "[2]", "value": "unstable"}, {"measurement": "plasma half-life", "setting": "[3]", "value": "about 20 minutes"}, {"measurement": "solubility in organic solvents", "setting": "[4]; organic solvents, such as acetone and methanol", "value": "soluble"}, {"measurement": "solubility in water", "setting": "[4]; water", "value": "slightly soluble"}]}
